From patent publication US5606037A, “Processes antineoplastic heteronaphthoquinones” (BioChem Pharma Inc., priority 1995, dated 1997)
Where a name gives a salt, the structure may show the parent alone.

Tests used:
Format in all cases: cell-based, Human
[1] = tested on: Lox (Melanoma); assay: In vitro cytotoxicity, microculture tetrazolium (MTT) assay, LOX; settings: 48 h with compound, further 48 h, Table 1
Experimental: (§1) The microculture tetrazolium assay was used to test in vitro cytotoxicity. This assay is described in Plumb, J. A. et al., 1989 Cancer Research 49, 4435-4440, which is herein incorporated by reference. The cytotoxicity of compounds towards tumor cells is measured in vitro using the assay. This assay method is based upon the ability of live, but not dead cells to reduce the yellow water soluble dye 3-(4,5-dimethylthiazol-2-yl)-2,5-diphenyltetrazolium bromide (MTT) to its water insoluble purple formazan product.
(§2) Human Tumor Cell lines, used were:
Lox (Melanoma)--Southern Research Institute.
(§3) The cells were maintained in exponential growth in culture in minimal essential media (MEM) supplemented with non-essential amino acids, and containing 15% (v/v) fetal. bovine serum, 5 mM L-glutamine, 1 mM sodium pyruvate, and 0.1 U/ml insulin. All cell lines were grown at 37° C. in an atmosphere of 5% CO2 in air.
(§4) MTT: 2 mg/ml in phosphate buffered saline (stable at 4° C. in dark for 1 week).
(§5) Sorensen's buffer: 0.1M glycine/NaOH, pH 10.5, containing 0.1M NaCl.
(§6) Test compounds: 20 mM in DMSO and diluted to a final concentration of 200 μM in culture medium before use.
(§7) For each assay, doxorubicin is included as an inter-assay standard. This allows us to monitor the behaviour of the assay in general, and in particular, to check that the SKVLB line has maintained its resistant phenotype.
(§8) The assays are carried out in 96-well (8 well×12 well) microtiter plates. Serial dilutions of the compound are tested along the length of the plate. A 1:3 serial dilution of compound in culture medium covers a concentration range from 100 μM to 1.7 nM. Each concentration of compound is tested in quadruplet, allowing two compounds to be tested per plate. Wells containing no cells (blank) and cells with no test compound (control) are included on each plate.
(§9) Cells are plated out in 100 μl of culture medium in the microtiter plates at a density of around 1,500-4,000 cells per well. The plates are incubated overnight to allow the cells to become adherent after which the test compound is added (100 μl of appropriate dilution per well). The cells are incubated with test compound at 37° C. for 48 h after which the compound is replaced with fresh medium. After a further 48 h incubation at 37° C., 50 μl of MTT solution (2 mg/ml) is added to each well. The plates are incubated in the dark for 4 h at 37° C. after which the medium is removed. The MTT formazan product is extracted from the cells by the addition of 200 μl DMSO followed by 50 μl of Sorensen's buffer. The plates are shaken briefly and the absorbance at 570 nm is read using a Molecular Devices UV max plate reader. Curves are fit to the MTT assay data using a four parameter logistic equation, and the data are normalized to fit a 0% to 100% survival scale.

[2] = tested on: SKVLB (Ovarian; multidrug resistant); assay: In vitro cytotoxicity, microculture tetrazolium (MTT) assay, SKVLB; settings: Homo sapiens; SKVLB multidrug resistant ovarian; 48 h with compound, further 48 h, MTT; Table 1
Experimental: as §1, §2
SKVLB (Ovarian; multidrug resistant)--Dr. V. Ling, Ontario Cancer Institute.
as §3, §4, §5, §6, §7, §8, §9

[3] = tested on: T47D (Ductal carcinoma of breast); assay: In vitro cytotoxicity, microculture tetrazolium (MTT) assay, T47D; settings: 48 h with compound, further 48 h, Table 1
Experimental: as §1, §2
T47D (Ductal carcinoma of breast)--ATCC catalog #HTB-133.
as §3, §4, §5, §6, §7, §8, §9

[4] = tested on: SKOV3 (Ovarian adenocarcinoma); assay: In vitro cytotoxicity, microculture tetrazolium (MTT) assay, SKOV3; settings: SKOV3 ovarian adenocarcinoma, 48 h with compound, further 48 h, MTT, Table 1
Experimental: as §1, §2
SKOV3 (Ovarian adenocarcinoma)--provided by Dr. V. Ling, Ontario Cancer Institute.
as §3, §4, §5, §6, §7, §8, §9

[5] = tested on: HT 29 (Colon adenocarcinoma); assay: In vitro cytotoxicity, microculture tetrazolium (MTT) assay, HT29; settings: further 48 h, Table 1
Experimental: as §1, §2
HT 29 (Colon adenocarcinoma) ATCC catalog #HTB-38.
as §3, §4, §5, §6, §7, §8, §9

[6] = Homo sapiens, HT-29, 48 h with compound

Row | SMILES | IC50 ([1]; Homo sapiens) [nM] | IC50 [2] [nM] | IC50 ([3]; Homo sapiens) [nM] | IC50 ([4]; Homo sapiens, SK-OV-3) [nM] | IC50 [5, 6] [nM] | IC50 [1] [nM] | IC50 [3] [nM] | IC50 [4] [nM] | IC50 ([5]; 48 h with compound) [nM]
1 | COCC1(COC)CC2=C(C(=O)c3ccccc3C2=O)[C@H](O[C@H]2C[C@H](NC(=O)C(F)(F)F)[C@H](O)[C@H](C)O2)O1 [BCH1697] | 5320 | 13200 | 18000 | 3700 | 11000 | – | – | – | –
2 | COC1OC(C(=O)NCCCn2ccnc2)=CC2=C1C(=O)c1ccccc1C2=O (centres unmarked) [BCH2157, (3-N-hydrochloroimidazolylpropyl)-1-methoxy-5,10-dioxo-5,10-dihydro-1H-naphtho-[2,3-c]-pyran-3-carboxamide] | – | – | – | – | – | 15.5 | 233 | 187 | 1230
3 | CC[C@H]1CC2=C(C(=O)c3ccccc3C2=O)[C@H](O[C@H]2C[C@H](NC(=O)C(F)(F)F)[C@H](O)[C@H](C)O2)O1 [BCH2020, (1'S, 1S, 3S)-5,10-dioxo-3-ethyl-1-(2',3',6'-trideoxy-3'-trifluoroacetamido-L-lyxohexopyranose)-3,4,5,10-tetrahydro-1H-naphtho-[2,3-c]-pyran] | 5450 | 25900 | 9420 | 11200 | 19100 | – | – | – | –
4 | COC(=O)[C@H](CC(C)C)NC(=O)[C@@H](N)CO[C@H]1O[C@H](C(C)=O)CC2=C1C(=O)c1ccccc1C2=O [BCH2000, (1S,2'S,3S,5'S)-Methyl-(1-O-[Serine-Leucine-Me ester]-5,10-dioxo-3,4,5,10-tetrahydro-1-H-naphtho[2,3-c]pyran-3-yl) ketone hydrochloride] | 90.5 | 6640 | 338 | 95 | 37.8 | – | – | – | –
5 | CC(=O)C1CC2=C(C(=O)c3ccccc3C2=O)C(O[C@H]2C[C@H](NC(=O)C(F)(F)F)[C@H](OS(C)(=O)=O)[C@H](C)O2)O1 (mixture of isomers) [BCH2095, (1'-S, 1-S, 3-R) and (1'-S, 1-R, 3-S)-methyl-(1-[2',3',4',6' tetradeoxy-3'-trifluoroacetamido-4'-O-methane-sulfonyl-L-lyxohexopyranose)-5,10-dioxo-3,4,5,10 tetrahydronaphtho-[2,3-c]pyran-3-yl) ketone] | 140 | 1600 | 370 | 190 | 99.6 | – | – | – | –
6 | CC(=O)[C@@H]1CC2=C(C(=O)c3ccccc3C2=O)[C@@H](O[C@H]2C[C@H](NC(=O)C(F)(F)F)[C@H](I)[C@H](C)O2)O1 [BCH1620, (1'-S,1-R,3-S)-methyl-(1-[2',3',6'-trideoxy-3'-trifluoroacetamido-4'-iodo-L-lyxohexopyranose]-5,10-dioxo-3,4,5,10-tetrahydronaphtho-[2,3-c]-pyran-3-yl)-ketone] | 22.7 | 216 | 183 | 4.2 | 32.8 | – | – | – | –
7 | COC1OC(C(=O)Nc2ccccc2)=CC2=C1C(=O)c1ccccc1C2=O (centres unmarked) [BCH2044, 1-methoxy-3-N-anilinylcarbonyl-5,10-dioxo-5,10-dihydro-1H-naphtho-[2,3-c]-pyran] | 380 | 5110 | 4250 | 1440 | 194 | – | – | – | –
8 | CC(=O)O[C@@H]1[C@H](C)O[C@@H](O[C@H]2O[C@H](C(C)=O)CC3=C2C(=O)c2ccccc2C3=O)C(Br)[C@@H]1OC(C)=O (stereo partly drawn) [BCH2100, (1'S,1R,3S)-methyl-(1-[2',6'-dideoxy-3',4'-diacetoxy-2'-bromo-L-lyxohexopyranose]-5,10-dioxo-3,4,5,10-tetrahydronaphtho-[2,3-c]-pyran-3-yl) ketone] | 3000 | 8220 | 4000 | 2700 | 5120 | – | – | – | –
9 | CC(=O)[C@H]1CC2=C(C(=O)c3ccccc3C2=O)[C@H](O[C@@H]2O[C@@H](C)[C@@H](O)[C@@H](NC(=O)C(F)(F)F)C2I)O1 (stereo partly drawn) [BCH2022, (1'S,1S,3R)-methyl-(1-[2',3',6'-trideoxy-2'-iodo-3'-trifluoroacetamido-4'-hydroxy-L-lyxohexopyranose]-5,10-dioxo-3,4,5,10-tetrahydronaphtho-[2,3-c]-pyran-3-yl) ketone] | 484 | 1870 | 934 | 442 | 532 | – | – | – | –
10 | CC(=O)[C@H]1CC2=C(C(=O)c3ccc(O)cc3C2=O)[C@H](O[C@H]2C[C@H](NC(=O)C(F)(F)F)[C@H](O)[C@H](C)O2)O1 [BCH1180, (1'S,1S,3R)-Methyl (5,10-dioxo-1-(2',3',6'-trideoxy-3'-trifluoroacetamido-L-lyxohexopyranose)-7-hydroxy-3,4,5, 10-tetrahydro[2,3-C]pyran-3-yl) ketone] | 3330 | 8680 | 7610 | 851 | 468 | – | – | – | –
11 | CC(C)[C@@H]1CC2=C(C(=O)c3ccccc3C2=O)[C@@H](O[C@H]2C[C@H](NC(=O)C(F)(F)F)[C@H](O)[C@H](C)O2)O1 [BCH2053, (1'S, 1R, 3S)-5,10-dioxo-3-isopropyl-1-(2',3',6'-trideoxy-3'-trifluoroacetamido-L-lyxohexopyranose)-3,4,5,10-tetrahydro-1H-naphtho-[2,3-c]-pyran] | 3250 | 21200 | 12300 | 4730 | 14000 | – | – | – | –
12 | CCCC1OC(C(=O)NCCCN(C)C)=CC2=C1C(=O)c1ccccc1C2=O (centres unmarked) [BCH2168, 1-propyl-3-(3-dimethylaminopropylaminocarbonyl)-5,10-dihydro-5,10-dioxo-1H-naphtho-[2,3-c]-pyran] | – | 980 | 573 | 180 to 276 | 393 to 1200 | – | – | – | –
13 | CC(=O)[C@H]1CC2=C(C(=O)c3ccccc3C2=O)[C@H](O[C@H]2C[C@H](NC(=O)C(F)(F)F)[C@H](OC(=O)CBr)[C@H](C)O2)O1 [BCH2105, (1'-S, 1-S, 3-R)-methyl-(1-[2',3',4',6' tetradeoxy-3'-trifluoroacetamido-4'-O-(2-bromo-acetyl)-L-lyxopyranose]-5, 10-dioxo-3,4,5,10 tetrahydronaphtho-[2,3-c]pyran-3-yl) ketone] | 25 | – | 19 | 3 | 6.9 | – | – | – | –
14 | C=CCC1CC2=C(C(=O)c3ccccc3C2=O)C(OC2CC(NC(=O)C(F)(F)F)C(O)C(C)O2)O1 (centres unmarked) [BCH1648] | 138 | – | 360 | 51.9 | 309 | – | – | – | –
15 | CC(NC(=O)C(F)(F)F)[C@H]1CC2=C(C(=O)c3ccccc3C2=O)[C@H](O[C@H]2C[C@H](O)[C@H](O)[C@H](C)O2)O1 (stereo partly drawn) [BCH2018, (1'S,1S,3R)-3-(trifluoroacetamidoethyl)-5,10-dioxo-1-(2',3',6'-trideoxy-3',4'-dihydroxy-L-lyxohexopyranose)-3,4,5,10-tetrahydro-1H-naphtho-[2,3-c]-pyran] | – | – | – | – | – | 2380 | 8560 | 3110 | 14200
16 | CC(=O)C1CC2=C(C(=O)c3ccccc3C2=O)C(O[C@H]2C[C@H](O)[C@H](O)[C@H](C)O2)O1 (mixture of isomers) [BCH2117, (1'S,1S,3R) and (1'S,1R,3S)-methyl-(1-[dideoxy-2',6'-dihydroxy-3',4'-L-lyxohexopyranose]-5,10-dioxo-3,4,5,10-tetrahydronaphtho-[2,3-c]-pyran-3-yl) ketone] | 73 | – | 37.4 | 9.5 | 30 | – | – | – | –
